Assay results as given in patent US12528812B2 (Genentech, Inc., priority 2020, dated 2026).
pIC50, pKi: −log10 of the molar value.

How the values were obtained:
[1] = molecular target: Recombinant human JAK2 kinase domain protein (Residues 812-1132) (Homo sapiens, UniProt O60674); assay: JAK2 biochemical assay (LabChip mobility shift, Ki); settings: Biochem JAK2 Ki
[2] = molecular target: T1, recombinant human JAK1 kinase domain protein (Residues 854-1154) (Homo sapiens, UniProt P23458); assay: JAK1 biochemical assay (LabChip mobility shift, Ki); settings: read-out: Biochem JAK1 Ki
T1 construct: human JAK1 kinase domain protein (Residues 854-1154); purchased Proteros Biostructures GmbH (Martinsried, Germany); host or cells: insect cells

[3] = system: IL-13-stimulated STAT6 phosphorylation in human lung bronchial epithelial BEAS-2B cell line; assay: P-STAT6 BEAS-2B + IL-13 cell assay; format: cell-based; settings: Homo sapiens, BEAS-2B, BEAS2B cells, IL13 stimulation; read-out: Cellular JAK1 PSTAT6 BEAS2B + IL13
Procedure, shortened: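 BEAS-2B cells grown 48 h at 37 °C, pre-treated 1 h with compound (10-point 1:2 dilution curve), then stimulated 15 min with human recombinant IL-13 (250 ng/mL stock). Lysate P-STAT6 (Tyr641) read by MSD sandwich ELISA with total-STAT6 capture; IC50 from four-parameter logistic fit of control-normalised data.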

Chain of Recombinant human JAK2 kinase domain protein (Residues 812-1132) (O60674 812-1132): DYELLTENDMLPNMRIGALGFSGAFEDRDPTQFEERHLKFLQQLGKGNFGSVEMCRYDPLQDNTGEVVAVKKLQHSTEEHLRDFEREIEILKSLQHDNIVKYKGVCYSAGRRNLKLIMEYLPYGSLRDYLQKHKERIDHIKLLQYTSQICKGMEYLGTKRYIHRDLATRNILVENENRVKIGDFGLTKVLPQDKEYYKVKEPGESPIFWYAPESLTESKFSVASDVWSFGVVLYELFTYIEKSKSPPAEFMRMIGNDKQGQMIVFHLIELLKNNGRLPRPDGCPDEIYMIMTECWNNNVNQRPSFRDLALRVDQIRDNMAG
T1 sequence (P23458 854-1154): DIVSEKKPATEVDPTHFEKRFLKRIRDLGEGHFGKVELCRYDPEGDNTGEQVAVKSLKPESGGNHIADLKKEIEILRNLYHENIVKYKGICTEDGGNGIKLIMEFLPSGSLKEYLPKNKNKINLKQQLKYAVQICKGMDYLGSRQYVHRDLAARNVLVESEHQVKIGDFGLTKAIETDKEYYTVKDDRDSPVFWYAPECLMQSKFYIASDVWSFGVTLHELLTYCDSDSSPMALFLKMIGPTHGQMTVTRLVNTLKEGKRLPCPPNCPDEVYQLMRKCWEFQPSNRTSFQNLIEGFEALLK

SMILES	pKi [1]	pKi [2]	pIC50 [3]
CC(C)N1CCC(O)(Cn2cc(Oc3ccc(OC(F)F)c(-c4nn(C)cc4NC(=O)c4cnn5cccnc45)c3)cn2)CC1 [Example 209, N-[3-[2-(difluoromethoxy)-5-[1-[(4-hydroxy-1-isopropyl-4-piperidyl)methyl]pyrazol-4-yl]oxy-phenyl]-1-methyl-pyrazol-4-yl]pyrazolo[1,5-a]pyrimidine-3-carboxamide]	9.32	9.02	6.72
Cn1cc(NC(=O)c2cnn3cccnc23)c(-c2cc(Oc3ccc(CN4CCC(CO)C4)cc3)ccc2OC(F)F)n1 (racemic) [Example 170, N-[3-[2-(difluoromethoxy)-5-[4-[[rac-(3S)-3-(hydroxymethyl)pyrrolidin-1-yl]methyl]phenoxy]phenyl]-1-methyl-pyrazol-4-yl]pyrazolo[1,5-a]pyrimidine-3-carboxamide]	8.72	8.39	7.12
Cn1cc(NC(=O)c2cnn3cccnc23)c(-c2cc(Oc3cccc(CN4CCO[C@@H](CO)C4)c3)ccc2OC(F)F)n1 (stereo in doubt) [Example 75, N-[3-[2-(difluoromethoxy)-5-[3-[[rac-(2S)-2-(hydroxymethyl)morpholin-4-yl]methyl]phenoxy]phenyl]-1-methyl-pyrazol-4-yl]pyrazolo[1,5-a]pyrimidine-3-carboxamide]	9.05	9.08	7.02
Cn1cc(NC(=O)c2cnn3cccnc23)c(-c2cc(Oc3cccc(-n4nccc4CN)c3)ccc2OC(F)F)n1 [Example 57, N-[3-[5-[3-[5-(aminomethyl)pyrazol-1-yl]phenoxy]-2-(difluoromethoxy)phenyl]-1-methyl-pyrazol-4-yl]pyrazolo[1,5-a]pyrimidine-3-carboxamide]	9.16	9.04	7.43
Cn1cc(NC(=O)c2cnn3cccnc23)c(-c2cc(Oc3cccc(CNCCN4CCOCC4)c3)ccc2OC(F)F)n1 [Example 47, N-[3-[2-(difluoromethoxy)-5-[3-[(2-morpholinoethylamino)methyl]phenoxy]phenyl]-1-methyl-pyrazol-4-yl]pyrazolo[1,5-a]pyrimidine-3-carboxamide]	8.80	8.70	7.62
Cn1cc(NC(=O)c2cnn3cccnc23)c(-c2cc(Oc3cncc(CN)c3)ccc2OC(F)F)n1 [Example 77, N-[3-[5-[[5-(aminomethyl)-3-pyridyl]oxy]-2-(difluoromethoxy)phenyl]-1-methyl-pyrazol-4-yl]pyrazolo[1,5-a]pyrimidine-3-carboxamide]	8.60	8.59	7.48
Cn1cc(NC(=O)c2cnn3cccnc23)c(-c2cc(Oc3cnn(CC4COC4)c3)ccc2OC(F)F)n1 [Example 125, N-[3-[2-(difluoromethoxy)-5-[1-(oxetan-3-ylmethyl)pyrazol-4-yl]oxy-phenyl]-1-methyl-pyrazol-4-yl]pyrazolo[1,5-a]pyrimidine-3-carboxamide]	9.42	9.09	7.06
CN(C)C(=O)c1ccc(Oc2ccc(OC(F)F)c(-c3n[nH]cc3NC(=O)c3cnn4cccnc34)c2)cc1 [Example 130, N-[3-[2-(difluoromethoxy)-5-[4-(dimethylcarbamoyl)phenoxy]phenyl]-1-1H-pyrazol-4-yl]pyrazolo[1,5-a]pyrimidine-3-carboxamide]	9.64	9.34	7.62
CCn1cc(NC(=O)c2cnn3cccnc23)c(-c2cc(Oc3cccc(C4(O)CNC4)c3)ccc2OC(F)F)n1 [Example 112, N-[3-[2-(difluoromethoxy)-5-[3-(3-hydroxyazetidin-3-yl)phenoxy]phenyl]-1-ethyl-pyrazol-4-yl]pyrazolo[1,5-a]pyrimidine-3-carboxamide]	9.34	9.42	6.96
Cn1cc(NC(=O)c2cnn3cccnc23)c(-c2cc(Oc3ccc4c(c3)CN(CCO)CC4)ccc2OC(F)F)n1 [Example 76, N-[3-[2-(difluoromethoxy)-5-[[2-(2-hydroxyethyl)-3,4-dihydro-1H-isoquinolin-7-yl]oxy]phenyl]-1-methyl-pyrazol-4-yl]pyrazolo[1,5-a]pyrimidine-3-carboxamide]	9.57	9.40	7.92
Cn1cc(NC(=O)c2cnn3cccnc23)c(-c2cc(Oc3cccc(CN4CCOC[C@@H]4CO)c3)ccc2OC(F)F)n1 (racemic) [Example 93, N-[3-[2-(difluoromethoxy)-5-[3-[[rac-(3R)-3-(hydroxymethyl)morpholin-4-yl]methyl]phenoxy]phenyl]-1-methyl-pyrazol-4-yl]pyrazolo[1,5-a]pyrimidine-3-carboxamide]	9.19	8.92	7.05
Cn1cc(NC(=O)c2cnn3cccnc23)c(-c2cc(Oc3cccc(C4CNCCO4)c3)ccc2OC(F)F)n1 (racemic) [Example 38, N-[3-[2-(difluoromethoxy)-5-[3-[rac-(2R)-morpholin-2-yl]phenoxy]phenyl]-1-methyl-pyrazol-4-yl]pyrazolo[1,5-a]pyrimidine-3-carboxamide]	9.42	9.28	7.66
Cn1cc(NC(=O)c2cnn3cccnc23)c(-c2cc(Oc3ccc(CC(=O)N4CCC4)cc3)ccc2OC(F)F)n1 [Example 149, N-[3-[5-[4-[2-(azetidin-1-yl)-2-oxo-ethyl]phenoxy]-2-(difluoromethoxy)phenyl]-1-methyl-pyrazol-4-yl]pyrazolo[1,5-a]pyrimidine-3-carboxamide]	9.77	9.55	7.70
O=C(Nc1c[nH]nc1-c1cc(Oc2ccc(OCC(F)(F)F)cc2)ccc1OC(F)F)c1cnn2cccnc12 [Example 5, N-[3-[2-(difluoromethoxy)-5-[4-(2,2,2-trifluoroethoxy)phenoxy]phenyl]-1H-pyrazol-4-yl]pyrazolo[1,5-a]pyrimidine-3-carboxamide]	9.04	8.96	7.74
Cn1cc(NC(=O)c2cnn3cccnc23)c(-c2cc(Oc3ccc(CN4CCC4CO)cc3)ccc2OC(F)F)n1 (racemic) [Example 168, N-[3-[2-(difluoromethoxy)-5-[4-[[rac-(2S)-2-(hydroxymethyl)azetidin-1-yl]methyl]phenoxy]phenyl]-1-methyl-pyrazol-4-yl]pyrazolo[1,5-a]pyrimidine-3-carboxamide]	9.24	8.89	7.52
Cn1cc(NC(=O)c2cnn3cccnc23)c(-c2cc(Oc3cccnn3)ccc2OC(F)F)n1 [Example 204, N-[3-[2-(difluoromethoxy)-5-pyridazin-3-yloxy-phenyl]-1-methyl-pyrazol-4-yl]pyrazolo[1,5-a]pyrimidine-3-carboxamide]	8.85	8.66	7.25
CCn1cc(NC(=O)c2cnn3cccnc23)c(-c2cc(Oc3cnn(CC4(O)CN(C)C4)c3)ccc2OC(F)F)n1 [Example 208, N-[3-[2-(difluoromethoxy)-5-[1-[(3-hydroxy-1-methyl-azetidin-3-yl)methyl]pyrazol-4-yl]oxy-phenyl]-1-ethyl-pyrazol-4-yl]pyrazolo[1,5-a]pyrimidine-3-carboxamide]	8.92	8.92	7.14
